The assay addresses T1, human M2 receptor (Homo sapiens, UniProt P08172).
T1 sequence (P08172 1-466): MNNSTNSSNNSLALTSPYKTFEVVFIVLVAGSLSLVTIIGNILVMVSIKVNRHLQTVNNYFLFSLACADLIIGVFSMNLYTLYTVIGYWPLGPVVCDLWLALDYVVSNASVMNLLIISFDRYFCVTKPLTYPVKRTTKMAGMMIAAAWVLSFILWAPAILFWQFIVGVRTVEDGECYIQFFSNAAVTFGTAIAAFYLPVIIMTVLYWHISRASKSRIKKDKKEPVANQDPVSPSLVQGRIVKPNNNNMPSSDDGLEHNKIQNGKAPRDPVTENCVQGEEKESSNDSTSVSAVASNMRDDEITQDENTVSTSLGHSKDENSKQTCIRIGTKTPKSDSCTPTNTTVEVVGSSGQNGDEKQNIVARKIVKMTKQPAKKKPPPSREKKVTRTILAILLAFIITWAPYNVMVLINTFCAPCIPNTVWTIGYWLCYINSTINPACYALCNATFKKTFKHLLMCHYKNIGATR
Put plainly: Functional M2-GIRK1/4 activation test: allosteric potency (EC50) and efficiency. To be noted: for EC50: Receptor activity EC50, CHO-DUKX-M2-GIRK cells, acetylcholine at EC20, in some cases mean of two or more determinations; for Emax: read-out: Efficiency, boosting of the acetylcholine effect at EC20 acetylcholine concentration, CHO-DUKX-M2-GIRK cells.

SMILES strings stand for the structures.

Usually EC50 stands for the concentration needed to bring the measured effect to its halfway point. Low readings indicate greater potency, high ones weaker potency. As to `CC(CF)(CF)NC(=O)c1cn(-c2ncc(F)cc2F)c2nc(N3C[C@@H](O)[C@H](O)C3)ccc2c1=O` [Example 103, N-(1,3-Difluoro-2-methylpropan-2-yl)-1-(3,5-difluoropyridin-2-yl)-7-[(3R,4R)-3,4-dihydroxypyrrolidin-1-yl]-4-oxo-1,4-dihydro-1,8-naphthyridine-3-carboxamide], the 50% effective concentration (EC50) worked out at 305 nM and the Emax turned out to be 100%.
The like results for `CC[C@H](NC(=O)c1cn(-c2ncc(F)cc2F)c2nc(N3C(=O)C4(CC4)C(O)C3C)ccc2c1=O)C(F)(F)F` (stereo partly drawn) [Example 113, 1-(3,5-Difluoropyridin-2-yl)-7-[7-hydroxy-6-methyl-4-oxo-5-azaspiro[2.4]hept-5-yl]-4-oxo-N-[(2S)-1,1,1-trifluorobutan-2-yl]-1,4-dihydro-1,8-naphthyridine-3-carboxamide] were, in that order, 145 nM and 97%.
The like results for `CC1C(O)C2(CC2)C(=O)N1c1ccc2c(=O)c(C(=O)N[C@H](C3CC3)C(F)(F)F)cn(-c3ncc(F)cc3F)c2n1` (stereo partly drawn) [Example 114, N-[(1R)-1-Cyclopropyl-2,2,2-trifluoroethyl]-1-(3,5-difluoropyridin-2-yl)-7-[7-hydroxy-6-methyl-4-oxo-5-azaspiro[2.4]hept-5-yl]-4-oxo-1,4-dihydro-1,8-naphthyridine-3-carboxamide] were, in that order, 111 nM and 96.5%.
Taken in the same sequence, the figures for `CC1C(O)C2(CC2)C(=O)N1c1ccc2c(=O)c(C(=O)N[C@@H](C3CC3)C(F)(F)F)cn(-c3ncc(F)cc3F)c2n1` (stereo partly drawn) [Example 115, N-[(1S)-1-Cyclopropyl-2,2,2-trifluoroethyl]-1-(3,5-difluoropyridin-2-yl)-7-[7-hydroxy-6-methyl-4-oxo-5-azaspiro[2.4]hept-5-yl]-4-oxo-1,4-dihydro-1,8-naphthyridine-3-carboxamide] were 150 nM and 89%.
For the compound `CC1C(O)C2(CC2)C(=O)N1c1ccc2c(=O)c(C(=O)N[C@@H](C)C(F)(F)F)cn(-c3ncc(F)cc3F)c2n1` (stereo partly drawn) [Example 116, 1-(3,5-Difluoropyridin-2-yl)-7-[7-hydroxy-6-methyl-4-oxo-5-azaspiro[2.4]hept-5-yl]-4-oxo-N-[(2S)-1,1,1-trifluoropropan-2-yl]-1,4-dihydro-1,8-naphthyridine-3-carboxamide], the response was half-maximal at 335 nM (EC50) and the Emax was 96%.
The like results for `CC[C@H](NC(=O)c1cn(-c2c(F)cncc2F)c2nc(N3C[C@@H](O)[C@H](O)C3)ccc2c1=O)C(F)(F)F` [Example 118, 1-(3,5-Difluoropyridin-4-yl)-7-[(3R,4R)-3,4-dihydroxypyrrolidin-1-yl]-4-oxo-N-[(2S)-1,1,1-trifluorobutan-2-yl]-1,4-dihydro-1,8-naphthyridine-3-carboxamide] were, in that order, 500 nM and 100%.
Turning to `CC[C@H](NC(=O)c1cn(-c2ncc(F)cc2F)c2nc(N3CCN(CCO)C3=O)ccc2c1=O)C(F)(F)F` [Example 119, 1-(3,5-Difluoropyridin-2-yl)-7-[3-(2-hydroxyethyl)-2-oxoimidazolidin-1-yl]-4-oxo-N-[(2S)-1,1,1-trifluorobutan-2-yl]-1,4-dihydro-1,8-naphthyridine-3-carboxamide], the EC50 was determined as 790 nM and the Emax amounted to 92%.
Turning to `CC[C@H](NC(=O)c1cn(-c2ncc(F)cc2F)c2nc(N3CCCN(CCO)C3=O)ccc2c1=O)C(F)(F)F` [Example 120, 1-(3,5-Difluoropyridin-2-yl)-7-[3-(2-hydroxyethyl)-2-oxotetrahydropyrimidin-1(2H)-yl]-4-oxo-N-[(2S)-1,1,1-trifluorobutan-2-yl]-1,4-dihydro-1,8-naphthyridine-3-carboxamide], the concentration for a half-maximal effect (EC50) is 400 nM and the Emax worked out at 100%.
The like results for `O=C(N[C@H](C1CC1)C(F)(F)F)c1cn(-c2ncc(F)cc2F)c2nc(N3CCN(CCO)C3=O)ccc2c1=O` [Example 121, N-[(1R)-1-Cyclopropyl-2,2,2-trifluoroethyl]-1-(3,5-difluoropyridin-2-yl)-7-[3-(2-hydroxyethyl)-2-oxoimidazolidin-1-yl]-4-oxo-1,4-dihydro-1,8-naphthyridine-3-carboxamide] were, in that order, 320 nM and 99%.
Take `O=C(N[C@H](C1CC1)C(F)(F)F)c1cn(-c2ncc(F)cc2F)c2nc(N3CCCN(CCO)C3=O)ccc2c1=O` [Example 122, N-[(1R)-1-Cyclopropyl-2,2,2-trifluoroethyl]-1-(3,5-difluoropyridin-2-yl)-7-[3-(2-hydroxyethyl)-2-oxotetrahydropyrimidin-1(2H)-yl]-4-oxo-1,4-dihydro-1,8-naphthyridine-3-carboxamide]: a half-maximal response (EC50) required 220 nM and the Emax worked out at 92%.
Taken in the same sequence, the figures for `O=C(N[C@@H](C1CC1)C(F)(F)F)c1cn(-c2ncc(F)cc2F)c2nc(N3CCCN(CCO)C3=O)ccc2c1=O` [Example 123, N-[(1S)-1-Cyclopropyl-2,2,2-trifluoroethyl]-1-(3,5-difluoropyridin-2-yl)-7-[3-(2-hydroxyethyl)-2-oxotetrahydropyrimidin-1(2H)-yl]-4-oxo-1,4-dihydro-1,8-naphthyridine-3-carboxamide] were 240 nM and 98%.
Taken in the same sequence, the figures for `CC(C)(C)[C@H](NC(=O)c1cn(-c2ncc(F)cc2F)c2nc(N3CCN(CCO)C3=O)ccc2c1=O)C(F)(F)F` [Example 124, 1-(3,5-Difluoropyridin-2-yl)-7-[3-(2-hydroxyethyl)-2-oxoimidazolidin-1-yl]-4-oxo-N-[(2S)-1,1,1-trifluoro-3,3-dimethylbutan-2-yl]-1,4-dihydro-1,8-naphthyridine-3-carboxamide] were 130 nM and 97%.
Taken in the same sequence, the figures for `CC(C)(C)[C@H](NC(=O)c1cn(-c2ncc(F)cc2F)c2nc(N3CCCN(CCO)C3=O)ccc2c1=O)C(F)(F)F` [Example 125, 1-(3,5-Difluoropyridin-2-yl)-7-[3-(2-hydroxyethyl)-2-oxotetrahydropyrimidin-1(2H)-yl]-4-oxo-N-[(2S)-1,1,1-trifluoro-3,3-dimethylbutan-2-yl]-1,4-dihydro-1,8-naphthyridine-3-carboxamide] were 73 nM and 97%.
On to `CC(C)(C)[C@@H](NC(=O)c1cn(-c2ncc(F)cc2F)c2nc(N3CCN(CCO)C3=O)ccc2c1=O)C(F)(F)F` [Example 126, 1-(3,5-Difluoropyridin-2-yl)-7-[3-(2-hydroxyethyl)-2-oxoimidazolidin-1-yl]-4-oxo-N-[(2R)-1,1,1-trifluoro-3,3-dimethylbutan-2-yl]-1,4-dihydro-1,8-naphthyridine-3-carboxamide], for which the EC50 is 87 nM and the Emax worked out at 98%.
As for `CC(C)(C)[C@@H](NC(=O)c1cn(-c2ncc(F)cc2F)c2nc(N3CCCN(CCO)C3=O)ccc2c1=O)C(F)(F)F` [Example 127, 1-(3,5-Difluoropyridin-2-yl)-7-[3-(2-hydroxyethyl)-2-oxotetrahydropyrimidin-1(2H)-yl]-4-oxo-N-[(2R)-1,1,1-trifluoro-3,3-dimethylbutan-2-yl]-1,4-dihydro-1,8-naphthyridine-3-carboxamide], the EC50 was 50 nM and the Emax worked out at 96%.
Taken in the same sequence, the figures for `CC[C@H](NC(=O)c1cn(-c2c(F)cncc2F)c2nc(N3CCNC3=O)ccc2c1=O)C(F)(F)F` [Example 128, 1-(3,5-Difluoropyridin-4-yl)-4-oxo-7-(2-oxoimidazolidin-1-yl)-N-[(2S)-1,1,1-trifluorobutan-2-yl]-1,4-dihydro-1,8-naphthyridine-3-carboxamide] were 520 nM and 89%.
Taken in the same sequence, the figures for `CC[C@H](NC(=O)c1cn(-c2ncc(F)cc2F)c2nc(N3CC[C@H](F)C3)ccc2c1=O)C(F)(F)F` [Example 129, 1-(3,5-Difluoropyridin-2-yl)-7-[(3S)-3-fluoropyrrolidin-1-yl]-4-oxo-N-[(2S)-1,1,1-trifluorobutan-2-yl]-1,4-dihydro-1,8-naphthyridine-3-carboxamide] were 21 nM and 96.5%.
Taken in the same sequence, the figures for `CC[C@H](NC(=O)c1cn(-c2ncc(F)cc2F)c2nc(N(C)C)ccc2c1=O)C(F)(F)F` [Example 130, 1-(3,5-Difluoropyridin-2-yl)-7-(dimethylamino)-4-oxo-N-[(2S)-1,1,1-trifluorobutan-2-yl]-1,4-dihydro-1,8-naphthyridine-3-carboxamide] were 53 nM and 93%.
For `CC[C@H](NC(=O)c1cn(-c2ncc(F)cc2F)c2nc(N3CC(O)(C(F)(F)F)C3)ccc2c1=O)C(F)(F)F` [Example 131, 1-(3,5-Difluoropyridin-2-yl)-7-[3-hydroxy-3-(trifluoromethyl)azetidin-1-yl]-4-oxo-N-[(2S)-1,1,1-trifluorobutan-2-yl]-1,4-dihydro-1,8-naphthyridine-3-carboxamide], the EC50 is 108 nM and the Emax was 95.5%.
The like results for `CC[C@H](NC(=O)c1cn(-c2ncc(F)cc2F)c2nc(N3CC(F)C3)ccc2c1=O)C(F)(F)F` [Example 132, 1-(3,5-Difluoropyridin-2-yl)-7-(3-fluoroazetidin-1-yl)-4-oxo-N-[(2S)-1,1,1-trifluorobutan-2-yl]-1,4-dihydro-1,8-naphthyridine-3-carboxamide] were, in that order, 325 nM and 98%.
